This note sets out measurements from patent publication US8637557B2, “Aminothiazole derivative” (Taisho Pharmaceutical Co., Ltd, priority 2009, dated 2014).

Some results are limits rather than exact numbers.

The target in the first test is T1, human PI 3-kinase p120γ (Homo sapiens, UniProt P48736).
T1 construct: purchased Millipore Corporation
T1 sequence (P48736 whole entry): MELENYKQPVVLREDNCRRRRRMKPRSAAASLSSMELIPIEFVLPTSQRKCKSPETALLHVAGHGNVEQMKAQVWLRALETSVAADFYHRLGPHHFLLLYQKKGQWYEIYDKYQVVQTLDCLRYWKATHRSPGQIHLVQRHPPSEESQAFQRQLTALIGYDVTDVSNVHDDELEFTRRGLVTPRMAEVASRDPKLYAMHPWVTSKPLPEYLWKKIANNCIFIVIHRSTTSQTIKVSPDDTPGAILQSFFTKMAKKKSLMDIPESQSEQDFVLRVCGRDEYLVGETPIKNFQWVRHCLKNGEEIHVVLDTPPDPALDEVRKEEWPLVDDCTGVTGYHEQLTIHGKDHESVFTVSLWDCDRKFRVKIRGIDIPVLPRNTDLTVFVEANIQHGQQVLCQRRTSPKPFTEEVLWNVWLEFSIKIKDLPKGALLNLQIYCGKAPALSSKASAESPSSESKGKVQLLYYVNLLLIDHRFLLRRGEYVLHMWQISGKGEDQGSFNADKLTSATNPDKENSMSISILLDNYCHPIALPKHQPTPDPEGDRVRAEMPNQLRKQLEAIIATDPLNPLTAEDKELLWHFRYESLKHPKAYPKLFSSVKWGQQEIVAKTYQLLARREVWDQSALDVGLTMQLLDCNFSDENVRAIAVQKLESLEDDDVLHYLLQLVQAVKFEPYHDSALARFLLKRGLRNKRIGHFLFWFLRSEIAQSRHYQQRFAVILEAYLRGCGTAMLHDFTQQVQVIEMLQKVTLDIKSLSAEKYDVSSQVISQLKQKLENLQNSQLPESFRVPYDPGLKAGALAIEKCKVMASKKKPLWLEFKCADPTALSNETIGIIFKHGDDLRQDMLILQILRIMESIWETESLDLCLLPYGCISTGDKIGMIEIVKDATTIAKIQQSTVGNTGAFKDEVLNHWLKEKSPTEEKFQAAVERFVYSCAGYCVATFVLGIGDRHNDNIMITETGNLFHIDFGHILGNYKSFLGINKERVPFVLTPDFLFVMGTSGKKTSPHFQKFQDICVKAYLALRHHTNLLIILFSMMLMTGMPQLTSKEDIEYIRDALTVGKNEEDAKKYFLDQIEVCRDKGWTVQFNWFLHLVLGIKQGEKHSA
Briefly: PI 3-kinase p120γ enzyme activity inhibition test. In kind it is biochemical. The settings on record: ATP 10.0 μM, PIP2-PS 5.0 μM, 30° C., 2 hours; read-out: IC50 value. The protocol:
Using human PI 3-kinase p120γ (manufactured by Millipore Corporation) and a mixed micellized product (hereinafter abbreviated as PIP2-PS) of the substrate thereof, L-a-Phosphatidyl-D-myo-inositol-4,5-bisphosphate (product of Calbiochem, hereinafter abbreviated as PIP2), and L-a-Phosphatidyl-L-Serine (manufactured by Sigma, hereinafter abbreviated as PS), the compound of the present invention was examined for the inhibitory action on PI3 Kinase p120γ enzyme activity (Km=8.9 μM for ATP, Km=4.0 μM for PIP2-PS).
PIP2-PS was prepared by mixing 500 μM of PIP2 and 2.5 nM of PS and sonicating the mixture for 40 minutes while ice cooling to cause micellization. ATP (final concentration 10.0 μM), [γ-^33P] ATP (final concentration 10 μCi/ml), PIP2-PS (final concentration 5.0 μM) and DMSO solutions of the test compound in different concentrations (compound final concentration 1.0×10^−5 to 2.4×10^−12 M, DMSO final concentration 0.1%) were added to PI 3-kinase p120γ, stirred and reacted at 30° C. for 2 hours. Using Phospholipid-Coated FlashPlate Microplates, 96-Well and Phospholipid FlashPlate Coating Buffer (both manufactured by PerkinElmer Co., Ltd.), PIP2-PS and phosphorylated PIP2-PS were allowed to be adsorbed to the well wall of the plate and collected. The well was washed twice with PBS (Phosphate-Buffered Saline) and dried. The radioactivity was measured using Top Count NXT (manufactured by PerkinElmer Co., Ltd.), whereby the phosphorylated amount (a) of PIP2-PS at the time of compound addition was calculated.
The same procedure was carried out in the absence of the test compound and the phosphorylated amount (b) of PIP2-PS was calculated. Further, the same procedure was carried out in the absence of both of the substrate and the test compound, and the PIP2-PS phosphorylated amount (c) of the background was calculated.
The PI3 Kinase p120γ enzyme activity suppression rate of the compound was calculated by the following formula. Suppression rate (%)=[1−(a−c)/(b−c)]×100
More specifically, using the suppression rate by the test compound of different concentrations, the IC50 value was calculated according to the dose-dependent inhibition curve analyzed by a data analysis software Origin (Lightstone Corp.) and used as the inhibitory activity index.
For `CC(=O)Nc1nc(C)c(-c2nc(CC(O)CC(F)(F)F)no2)s1` (stereo not shown) [Example 67], the IC50 was 428 nM.

With `CC(=O)Nc1nc(C)c(-c2nc(CCC(C)C)no2)s1` [Example 82], the IC50 amounted to 88 nM.

The test is the same for the next values; noted with them: ATP 10.0 μM, PIP2-PS 5.0 μM, 30° C., 2 hours; read-out: PI3Kγ (IC50 value class).
`CC(=O)Nc1nc(C)c(-c2nc(CC3(C)COC3)no2)s1` [Example 41]: the IC50 was less than 100 nM.

On to `CC(=O)Nc1nc(C)c(-c2nc(CC(O)CC(F)(F)F)no2)s1` (stereo not shown) [Example 67], for which the IC50 is 100 to 500 nM.

As to `CC(=O)Nc1nc(C)c(-c2nc(C3CCCC3)no2)s1` [Example 18], the IC50 was less than 100 nM.

`Cc1nc(NC(=O)NCCC(=O)OCCO)sc1-c1nc(-c2cccnc2)no1` [Example 151]: the IC50 is less than 100 nM.

For the molecule `CC(=O)Nc1nc(C)c(-c2nc(-c3ccccn3)no2)s1` [Example 10], the IC50 fell in the range of 100 to 500 nM.

Consider `Cc1nc(NC(=O)NCCc2cn(C(C)C)cn2)sc1-c1nc(CC(C)(C)CO)no1` [Example 162], for which the IC50 was less than 100 nM.

On to `COC(=O)c1cncc(-c2noc(-c3sc(NC(C)=O)nc3C)n2)c1` [Example 37], for which the IC50 is less than 100 nM.

Take `CC(=O)Nc1nc(C)c(-c2nc(CC3(CO)CC3)no2)s1` [Example 48]: the 50% inhibitory concentration (IC50) was less than 100 nM.

`Cc1nc(NC(=O)NCCCOC(C)(C)C)sc1-c1nc(-c2cccnc2)no1` [Example 130]: the half-inhibitory concentration (IC50) was less than 100 nM.

As to `CC(=O)Nc1nc(C)c(-c2nc(CCc3cccnc3)no2)s1` [Example 12], the IC50 is 100 to 500 nM.

Take `CC(=O)Nc1nc(C)c(-c2nc(Cc3cccnc3)no2)s1` [Example 8]: the IC50 lay within 500 to 10000 nM.

As to `Cc1nc(NC(=O)NCCN)sc1-c1nc(-c2cccnc2)no1` [Example 138], the IC50 was less than 100 nM.

`COCC(=O)Nc1nc(C)c(-c2nc(-c3cccnc3)no2)s1` [Example 116]: the IC50 is less than 100 nM.

In the case of `CC(=O)Nc1nc(C)c(-c2nc(CCC(C)C)no2)s1` [Example 82], the concentration for half-maximal inhibition (IC50) is less than 100 nM.

Turning to `Cc1nc(NC(=O)NCCC(=O)OC(C)(C)C)sc1-c1nc(CC(C)(C)CO)no1` [Example 157], the IC50 is less than 100 nM.

For `Cc1nc(NC(=O)NCCC(=O)NC(C)(CO)CO)sc1-c1nc(CC(F)(F)F)no1` [Example 164], the IC50 was less than 100 nM.

For `Cc1nc(N)sc1-c1nc(C(C)(C)C)no1` [Example 114], the IC50 is less than 100 nM.

Take `Cc1nc(NC(=O)NCC(C)O)sc1-c1nc(-c2cccc(O)c2)no1` (stereo not shown) [Example 174]: the IC50 was less than 100 nM.

Take `Cc1nc(NC(=O)NCCNC(=O)C(C)(C)C)sc1-c1nc(-c2cccnc2)no1` [Example 139]: the IC50 is less than 100 nM.

For `CCOC(=O)CCNC(=O)Nc1nc(C)c(-c2nc(-c3cccnc3)no2)s1` [Example 119], the IC50 was less than 100 nM.

Regarding `COCCNC(=O)Nc1nc(C)c(-c2nc(-c3cccnc3)no2)s1` [Example 122], the IC50 is less than 100 nM.

`CC(=O)Nc1nc(C)c(-c2nc(C3CCCCC3)no2)s1` [Example 9]: the IC50 was less than 100 nM.

Consider `CC(=O)Nc1nc(C)c(-c2nc(-c3ccc(=O)n(C)c3)no2)s1` [Example 39], for which the concentration for half-maximal inhibition (IC50) lay in the range of 100 to 500 nM.

As to `CC(=O)Nc1nc(C)c(-c2nc(CC(C)(CO)CO)no2)s1` [Example 42], the concentration for half-maximal inhibition (IC50) was less than 100 nM.

For the molecule `CCOC(=O)Nc1nc(C)c(-c2nc(CC(C)(C)CO)no2)s1` [Example 158], the IC50 was less than 100 nM.

On to `CC(=O)Nc1nc(C)c(-c2nc(CCO)no2)s1` [Example 13], for which the IC50 lay in the range of 100 to 500 nM.

As for `CC(=O)Nc1nc(C)c(-c2nc(CC(C)(C)O)no2)s1` [Example 34], the IC50 is less than 100 nM.

For the molecule `Cc1nc(NC(=O)NCCCN2CCOCC2)sc1-c1nc(-c2cccnc2)no1` [Example 142], the IC50 is less than 100 nM.

With `CCOC(=O)c1noc(-c2sc(NC(C)=O)nc2C)n1` [Example 55, Ethyl-5-[2-(acetylamino)-4-methyl-1,3-thiazol-5-yl]-1,2,4-oxadiazol-3-carboxylate], the IC50 fell in the range of 100 to 500 nM.

As for `CC(=O)Nc1nc(C)c(-c2nc(Cc3cccc(O)c3)no2)s1` [Example 49], the IC50 fell in the range of 100 to 500 nM.

For `CC(=O)Nc1nc(C)c(-c2nc(C(C)NS(C)(=O)=O)no2)s1` (stereo not shown) [Example 81], the IC50 lay within 500 to 10000 nM.

`COC(Cc1noc(-c2sc(NC(C)=O)nc2C)n1)OC` [Example 52]: the IC50 was in the range of 500 to 10000 nM.

For `CC(=O)Nc1nc(C)c(-c2nc(N3CCCC(O)C3)no2)s1` (stereo not shown) [Example 93], the IC50 was less than 100 nM.

Take `Cc1nc(NC(=O)NCCCNC(C)(C)C)sc1-c1nc(-c2cccnc2)no1` [Example 148]: the IC50 was less than 100 nM.

For the molecule `CC(=O)Nc1nc(C)c(-c2nc(CS(C)(=O)=O)no2)s1` [Example 24], the IC50 was less than 100 nM.

In the case of `CNC(=O)c1noc(-c2sc(NC(C)=O)nc2C)n1` [Example 78], the IC50 lay within 100 to 500 nM.

On to `CC(=O)Nc1nc(C)c(-c2nc(CCN3CCCC3=O)no2)s1` [Example 89], for which the IC50 fell in the range of 500 to 10000 nM.

On to `Cc1nc(NC(=O)CCNC(=O)OC(C)(C)C)sc1-c1nc(CC(C)(C)CO)no1` [Example 163], for which the IC50 lay within 100 to 500 nM.

On to `Cc1nc(NC(=O)NCCC(=O)NC(C)(C)CO)sc1-c1nc(-c2cccnc2)no1` [Example 149], for which the IC50 was less than 100 nM.

With `CC(=O)Nc1nc(C)c(-c2nc(CC(C)(C)CN)no2)s1` [Example 43], the IC50 fell in the range of 500 to 10000 nM.

For the molecule `CC(=O)Nc1nc(C)c(-c2nc(CC(C)(C)S(=O)(=O)NC(C)(C)C)no2)s1` [Example 94], the 50% inhibitory concentration (IC50) lay within 100 to 500 nM.

Regarding `Cc1nc(NC(=O)NCCC(=O)N2CCC(O)CC2)sc1-c1nc(CC(F)(F)F)no1` [Example 166], the IC50 was less than 100 nM.

For the molecule `Cc1nc(NC(=O)NCCC(=O)N2CCC(O)CC2)sc1-c1nc(-c2cccnc2)no1` [Example 150], the 50% inhibitory concentration (IC50) was less than 100 nM.

With `CC(=O)Nc1nc(C)c(-c2nc(CC(C)(C)C(O)c3ccccc3)no2)s1` (stereo not shown) [Example 100], the IC50 is 100 to 500 nM.

For `COc1ncccc1-c1noc(-c2sc(NC(C)=O)nc2C)n1` [Example 16], the half-maximal inhibitory concentration (IC50) is less than 100 nM.

As for `CCn1cnc(CCNC(=O)Nc2nc(C)c(-c3nc(-c4cccnc4)no3)s2)c1` [Example 172], the IC50 is less than 100 nM.

Regarding `CC(=O)Nc1nc(C)c(-c2nc(-c3cnccn3)no2)s1` [Example 23], the IC50 was less than 100 nM.

Take `CC(=O)Nc1nc(C)c(-c2nc(CC(C)(C)COS(C)(=O)=O)no2)s1` [Example 76]: the IC50 was 100 to 500 nM.

As for `CCOC(=O)CCCC(=O)Nc1nc(C)c(-c2nc(-c3cccnc3)no2)s1` [Example 118], the IC50 was less than 100 nM.

For the molecule `Cc1nc(NC(=O)N2CCC(O)CC2)sc1-c1nc(-c2cccnc2)no1` [Example 137], the IC50 fell in the range of 500 to 10000 nM.

As to `CC(=O)Nc1nc(C)c(-c2nc(-c3ccc(C)nc3)no2)s1` [Example 17], the IC50 was less than 100 nM.

For `CC(=O)Nc1nc(C)c(-c2nc(C3CC3)no2)s1` [Example 83], the IC50 is less than 100 nM.

In the case of `COCCc1noc(-c2sc(NC(C)=O)nc2C)n1` [Example 22], the IC50 lay in the range of 100 to 500 nM.

Take `Cc1nc(NC(=O)NCCO)sc1-c1nc(-c2cccnc2)no1` [Example 120]: the IC50 was less than 100 nM.

Regarding `CC(=O)Nc1nc(C)c(-c2nc(CC(C)(C)C(=O)O)no2)s1` [Example 108], the IC50 was less than 100 nM.

`Cc1nc(NC(=O)NCCC(=O)NC(C)(C)C)sc1-c1nc(CC(C)(C)CO)no1` [Example 161]: the IC50 was less than 100 nM.

Regarding `CC(=O)Nc1nc(C)c(-c2nc(C(=O)N3CC(O)C3)no2)s1` [Example 90], the IC50 was in the range of 100 to 500 nM.

`COCCNC(=O)CCNC(=O)Nc1nc(C)c(-c2nc(CC(F)(F)F)no2)s1` [Example 167]: the IC50 is less than 100 nM.

Regarding `CC(=O)Nc1nc(C)c(-c2nc(CC(C)(C)C(C)O)no2)s1` (stereo not shown) [Example 85], the IC50 was less than 100 nM.

Consider `Cc1nc(NC(=O)NCCCN2CCCC2=O)sc1-c1nc(CC(C)(C)CO)no1` [Example 159], for which the IC50 is less than 100 nM.

As for `CC(=O)Nc1nc(C)c(-c2nc(C(=O)NC3COC3)no2)s1` [Example 96], the IC50 lay in the range of 100 to 500 nM.

Take `CC(=O)Nc1nc(C)c(-c2nc(N3CC[C@@H](O)C3)no2)s1` [Example 103]: the concentration for half-maximal inhibition (IC50) lay in the range of 100 to 500 nM.

Take `CC(=O)Nc1nc(C)c(-c2nc(C(C)(C)CO)no2)s1` [Example 65]: the IC50 is less than 100 nM.

For the molecule `C=Cc1noc(-c2sc(NC(C)=O)nc2C)n1` [Example 35], the IC50 was in the range of 100 to 500 nM.

As for `CC(=O)CCc1noc(-c2sc(NC(C)=O)nc2C)n1` [Example 66], the IC50 was 100 to 500 nM.

For `Cc1nc(NC(=O)NCCc2ccccn2)sc1-c1nc(-c2cccnc2)no1` [Example 171], the concentration for half-maximal inhibition (IC50) is less than 100 nM.

`Cc1nc(NC(=O)NCCN2CCOCC2)sc1-c1nc(-c2cccnc2)no1` [Example 121]: the IC50 is less than 100 nM.

On to `Cc1nc(N)sc1-c1nc(CC(F)(F)F)no1` [Example 146], for which the concentration for half-maximal inhibition (IC50) is less than 100 nM.
